Data as given in patent US11814367B2, “Inhibitors of glycogen synthase 1 (GYS1) and methods of use thereof” (Maze Therapeutics, Inc., priority 2021, dated 2023).

What was measured:
[1] = biological target: hGYS2 enzyme (recombinant hGYS2/GN1 protein) (Homo sapiens (Human), UniProt P54840); assay: GYS2 coupled enzyme assay (PK/LDH); type: biochemical; conditions: geometric mean of at least 2 assay runs on separate days, read-out: Avg_IC50
In short: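 hGYS2/GN1 200 nM; UDP-Glc 2 mM; glycogen 0.2%; G6P 2 mM; PEP 2 mM, NADH 0.6 mM, PK/LDH 20 U/mL. 50 mM Tris pH 7.5, MgCl2, KCl, BSA, TCEP, 2.5% DMSO. Kinetic A340, 10 min. IC50 = geomean of ≥2 runs.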

[2] = biological target: hGYS1 enzyme (recombinant hGYS1/GN1 protein) (Homo sapiens (Human), UniProt P13807); assay: GYS1 coupled enzyme assay (PK/LDH); type: biochemical; conditions: hGYS1/GN1 50 nM, UDP-Glucose 0.8 mM, G6P 1 mM; geometric mean of at least 2 runs
Chain of hGYS1 enzyme (recombinant hGYS1/GN1 protein) (P13807 whole entry): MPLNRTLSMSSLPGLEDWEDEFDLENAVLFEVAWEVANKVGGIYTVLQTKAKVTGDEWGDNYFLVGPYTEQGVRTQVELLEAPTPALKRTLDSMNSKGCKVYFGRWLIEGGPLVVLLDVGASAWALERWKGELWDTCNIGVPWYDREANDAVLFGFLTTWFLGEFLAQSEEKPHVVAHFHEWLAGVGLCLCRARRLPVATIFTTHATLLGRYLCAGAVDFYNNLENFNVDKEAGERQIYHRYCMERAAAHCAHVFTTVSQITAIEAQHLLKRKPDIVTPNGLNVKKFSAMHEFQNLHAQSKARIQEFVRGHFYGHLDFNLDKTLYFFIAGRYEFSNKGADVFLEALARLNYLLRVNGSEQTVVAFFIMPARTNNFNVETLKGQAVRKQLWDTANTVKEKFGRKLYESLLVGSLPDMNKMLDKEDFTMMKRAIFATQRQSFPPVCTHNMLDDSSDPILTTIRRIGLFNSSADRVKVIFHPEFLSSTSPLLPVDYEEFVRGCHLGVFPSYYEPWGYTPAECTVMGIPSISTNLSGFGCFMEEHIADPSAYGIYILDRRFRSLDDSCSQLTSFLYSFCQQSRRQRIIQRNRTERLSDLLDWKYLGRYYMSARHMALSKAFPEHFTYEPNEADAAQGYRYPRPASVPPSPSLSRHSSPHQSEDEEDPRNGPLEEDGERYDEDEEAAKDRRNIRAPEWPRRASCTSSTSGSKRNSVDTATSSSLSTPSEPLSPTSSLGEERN
Chain of hGYS1 enzyme (recombinant hGYS1/GN1 protein) (P46976 whole entry partner): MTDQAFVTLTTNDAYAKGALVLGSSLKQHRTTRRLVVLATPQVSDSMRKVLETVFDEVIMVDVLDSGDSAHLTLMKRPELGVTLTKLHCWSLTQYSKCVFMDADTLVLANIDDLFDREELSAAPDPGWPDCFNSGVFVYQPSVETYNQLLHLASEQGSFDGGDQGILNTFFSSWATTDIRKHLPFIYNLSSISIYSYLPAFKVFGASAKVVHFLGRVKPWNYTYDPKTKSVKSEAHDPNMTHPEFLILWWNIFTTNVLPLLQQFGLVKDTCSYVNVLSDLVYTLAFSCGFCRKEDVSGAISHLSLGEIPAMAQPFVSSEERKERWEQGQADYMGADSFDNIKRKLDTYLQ

Chain of hGYS2 enzyme (recombinant hGYS2/GN1 protein) (P54840 whole entry): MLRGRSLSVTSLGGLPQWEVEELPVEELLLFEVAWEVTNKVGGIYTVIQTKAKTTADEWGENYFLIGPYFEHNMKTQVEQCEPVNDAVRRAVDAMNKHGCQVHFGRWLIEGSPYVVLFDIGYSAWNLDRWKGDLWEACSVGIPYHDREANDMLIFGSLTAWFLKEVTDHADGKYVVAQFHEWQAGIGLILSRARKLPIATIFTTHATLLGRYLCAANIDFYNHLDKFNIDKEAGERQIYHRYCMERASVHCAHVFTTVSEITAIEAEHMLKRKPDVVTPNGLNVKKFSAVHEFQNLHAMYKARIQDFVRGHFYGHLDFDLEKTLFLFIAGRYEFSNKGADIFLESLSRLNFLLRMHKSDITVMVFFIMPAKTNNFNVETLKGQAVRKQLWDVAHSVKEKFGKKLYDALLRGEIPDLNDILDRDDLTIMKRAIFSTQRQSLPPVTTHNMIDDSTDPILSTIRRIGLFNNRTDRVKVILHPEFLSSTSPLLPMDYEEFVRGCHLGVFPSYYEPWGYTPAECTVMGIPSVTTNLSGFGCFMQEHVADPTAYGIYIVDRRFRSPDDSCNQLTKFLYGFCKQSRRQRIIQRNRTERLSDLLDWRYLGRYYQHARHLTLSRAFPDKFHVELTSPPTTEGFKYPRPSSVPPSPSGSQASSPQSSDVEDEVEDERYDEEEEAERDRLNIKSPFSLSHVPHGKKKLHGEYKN
Chain of hGYS2 enzyme (recombinant hGYS2/GN1 protein) (P46976 whole entry partner): as the sequence (P46976 whole entry partner) above

Row | SMILES | IC50 [1] [nM] | IC50 [2] [nM]
1 | O=C(N[C@@H](c1ccccc1)c1ccc(C2CC2)c(F)c1)[C@@H]1C[C@@H](F)CN1C(=O)Cn1cccn1 [Compound 435, (2S,4R)-N-[(S)-(4-cyclopropyl-3-fluorophenyl)(phenyl)methyl]-4-fluoro-1-[2-(1H-pyrazol-1-yl)acetyl]pyrrolidine-2-carboxamide] | > 100000 | 149
2 | O=C(N[C@@H](c1ccccc1)c1ccc(C2CC2)c(F)c1)[C@@H]1C[C@@H](F)CN1C(=O)Cc1ccn[nH]1 [Compound 436, (2S,4R)-N-[(S)-(4-cyclopropyl-3-fluorophenyl)(phenyl)methyl]-4-fluoro-1-[2-(1H-pyrazol-5-yl)acetyl]pyrrolidine-2-carboxamide] | > 100000 | 173
3 | O=C(N[C@@H](c1ccccc1)c1ccc(C2CC2)c(F)c1)[C@@H]1C[C@@H](F)CN1C(=O)Cc1cn[nH]c1 [Compound 437, (2S,4R)-N-[(S)-(4-cyclopropyl-3-fluorophenyl)(phenyl)methyl]-4-fluoro-1-[2-(1H-pyrazol-4-yl)acetyl]pyrrolidine-2-carboxamide] | > 100000 | 157
4 | CN(C)C(=O)NCC(=O)N1C[C@H](F)C[C@H]1C(=O)N[C@@H](c1ccccc1)c1ccc(C2CC2)c(F)c1 [Compound 441, (2S,4R)-N-[(S)-(4-cyclopropyl-3-fluorophenyl)(phenyl)methyl]-1-{2-[(dimethylcarbamoyl)amino]acetyl}-4-fluoropyrrolidine-2-carboxamide] | > 100000 | 51
5 | O=C(N[C@@H](c1ccccc1)c1ccc(C2CC2)c(F)c1)[C@@H]1C[C@@H](F)CN1C(=O)Cc1cccc2ncccc12 [Compound 443, (2S,4R)-N-[(S)-(4-cyclopropyl-3-fluorophenyl)(phenyl)methyl]-4-fluoro-1-[2-(quinolin-5-yl)acetyl]pyrrolidine-2-carboxamide] | > 100000 | 28
6 | Cc1n[nH]c(C)c1CC(=O)N1C[C@H](F)C[C@H]1C(=O)N[C@@H](c1ccccc1)c1ccc(C2CC2)c(F)c1 [Compound 444, (2S,4R)-N-[(S)-(4-cyclopropyl-3-fluorophenyl)(phenyl)methyl]-1-[2-(3,5-dimethyl-1H-pyrazol-4-yl)acetyl]-4-fluoropyrrolidine-2-carboxamide] | > 100000 | 44
7 | CC(C)c1ccc([C@@H](NC(=O)[C@@H]2C[C@@H](F)CN2C(=O)Cc2cnn[nH]2)c2cccnc2N)cc1F [Compound 613, (2S,4R)-1-(2-(1H-1,2,3-triazol-5-yl)acetyl)-N—((R)-(2-aminopyridin-3-yl)(3-fluoro-4-isopropylphenyl)methyl)-4-fluoropyrrolidine-2-carboxamide] | > 100000 | 130
8 | COc1ccccc1[C@H](NC(=O)[C@@H]1CCCN1C(C)=O)c1ccc(C(C)C)cc1 [Compound 639, (2S)-1-acetyl-N-[(R)-(2-methoxyphenyl)[4-(propan-2-yl)phenyl]methyl] pyrrolidine-2-carboxamide] | > 100000 | 921
9 | CC(=O)N1CCC[C@H]1C(=O)N[C@H](c1ccc(C(C)C)cc1)c1ccccc1C [Compound 640, (2S)-1-acetyl-N-[(R)-(2-methylphenyl)[4-(propan-2-yl)phenyl]methyl] pyrrolidine-2-carboxamide] | > 100000 | 1440
10 | CC(C)c1ccc([C@@H](NC(=O)[C@@H]2CCCN2C(=O)Cc2cnn[nH]2)c2cccc3[nH]c(=O)[nH]c23)cc1 [Compound 644, (2S)-N-[(R)-(2-oxo-2,3-dihydro-1H-1,3-benzodiazol-4-yl)[4-(propan-2-yl)phenyl]methyl]-1-[2-(1H-1,2,3-triazol-5-yl)acetyl]pyrrolidine-2-carboxamide] | > 100000 | 273
11 | CC(C)c1ccc([C@@H](NC(=O)[C@@H]2C[C@@H](F)CN2C(=O)Cc2cnn[nH]2)c2cccc(F)c2)cc1F [Compound 645, (2S,4R)-4-fluoro-N-[(S)-[3-fluoro-4-(propan-2-yl)phenyl](3-fluoropheny)methyl]-1-[2-(1H-1,2,3-triazol-5-yl)acetyl]pyrrolidine-2-carboxamide] | > 100000 | 100
12 | CC(C)c1ccc([C@@H](NC(=O)[C@@H]2C[C@@H](F)CN2C(=O)Cc2cnn[nH]2)c2ccc(F)cc2)cc1F [Compound 646, (2S,4R)-4-fluoro-N-[(S)-[3-fluoro-4-(propan-2-yl)phenyl](4-fluorophenyl)methyl]-1-[2-(1H-1,2,3-triazol-5-yl)acetyl]pyrrolidine-2-carboxamide] | > 100000 | 48

The next lines start with the values.

Row | IC50 [1] [nM] | IC50 [2] [nM] | SMILES
13 | > 100000 | 20 | CC(C)c1ccc([C@@H](NC(=O)[C@@H]2C[C@@H](F)CN2C(=O)CNC(=O)N2CCN(C(=O)OC(C)(C)C)CC2)c2ccccc2)cc1F [Compound 366, tert-butyl 4-({2-[(2S,4R)-4-fluoro-2-{[(S)-[3-fluoro-4-(propan-2-yl)phenyl](phenyl)methyl]carbamoyl}pyrrolidin-1-yl]-2-oxoethyl}carbamoyl) piperazine-1-carboxylate]
14 | > 100000 | 8 | CC(C)c1ccc([C@@H](NC(=O)[C@@H]2C[C@@H](F)CN2C(=O)Cn2ncc(N3CCNCC3)n2)c2ccccc2)cc1F [Compound 376, (2S,4R)-4-fluoro-N-[(S)-[3-fluoro-4-(propan-2-yl)phenyl](phenyl)methyl]-1-{2-[4-(piperazin-1-yl)-2H-1,2,3-triazol-2-yl]acetyl}pyrrolidine-2-carboxamide]
15 | > 100000 | 5 | Cc1cn(CC(=O)N2C[C@H](F)C[C@H]2C(=O)N[C@@H](c2ccccc2)c2ccc(C(C)C)c(F)n2)c(=O)n(C)c1=O [Compound 386, (2S,4R)-1-[2-(3,5-dimethyl-2,4-dioxo-1,2,3,4-tetrahydropyrimidin-1-yl)acetyl]-4-fluoro-N-[(S)-[6-fluoro-5-(propan-2-yl)pyridin-2-yl](phenyl)methyl] pyrrolidine-2-carboxamide]
16 | > 100000 | 5 | Cc1cn(CC(=O)N2C[C@H](F)C[C@H]2C(=O)N[C@@H](c2ccccc2)c2ccc(C(C)C)c(F)n2)c(=O)[nH]c1=O [Compound 388, (2S,4R)-4-fluoro-N-[(S)-[6-fluoro-5-(propan-2-yl)pyridin-2-yl](phenyl)methyl]-1-[2-(5-methyl-2,4-dioxo-1,2,3,4-tetrahydropyrimidin-1-yl)acetyl]pyrrolidine-2-carboxamide]
17 | > 100000 | 697 | CC(=O)N1C[C@H](F)C[C@H]1C(=O)N[C@@H](c1ccccc1)c1ccc(C2CC2)c(F)c1 [Compound 418, (2S,4R)-1-acetyl-N-[(S)-(4-cyclopropyl-3-fluorophenyl)(phenyl)methyl]-4-fluoropyrrolidine-2-carboxamide]
18 | > 100000 | 294 | CC(=O)NCC(=O)N1CCC[C@H]1C(=O)N[C@@H](c1ccccc1)c1ccc(C2CC2)c(F)c1 [Compound 421, (2S)-N-[(S)-(4-cyclopropyl-3-fluorophenyl)(phenyl)methyl]-1-(2-acetamidoacetyl) pyrrolidine-2-carboxamide]
19 | > 100000 | 166 | O=C(N[C@@H](c1ccccc1)c1ccc(C2CC2)c(F)c1)[C@@H]1C[C@@H](F)CN1C(=O)CCc1ncco1 [Compound 422, (2S,4R)-N-[(S)-(4-cyclopropyl-3-fluorophenyl)(phenyl)methyl]-4-fluoro-1-[3-(1,3-oxazol-2-yl)propanoyl]pyrrolidine-2-carboxamide]
20 | > 100000 | 287 | O=C(N[C@@H](c1ccccc1)c1ccc(C2CC2)c(F)c1)[C@@H]1C[C@@H](F)CN1C(=O)CN1CCOC1=O [Compound 424, (2S,4R)-N-[(S)-(4-cyclopropyl-3-fluorophenyl)(phenyl)methyl]-4-fluoro-1-[2-(2-oxo-1,3-oxazolidin-3-yl)acetyl] pyrrolidine-2-carboxamide]
21 | > 100000 | 363 | O=C(N[C@@H](c1ccccc1)c1ccc(C2CC2)c(F)c1)[C@@H]1C[C@@H](F)CN1C(=O)Cc1nnco1 [Compound 426, (2S,4R)-N-[(S)-(4-cyclopropyl-3-fluorophenyl)(phenyl)methyl]-4-fluoro-1-[2-(1,3,4-oxadiazol-2-yl)acetyl]pyrrolidine-2-carboxamide]
22 | > 100000 | 374 | O=C(N[C@@H](c1ccccc1)c1ccc(C2CC2)c(F)c1)[C@@H]1C[C@@H](F)CN1C(=O)Cc1nnc(C(F)(F)F)o1 [Compound 428, (2S,4R)-N-[(S)-(4-cyclopropyl-3-fluorophenyl)(phenyl)methyl]-4-fluoro-1-{2-[5-(trifluoromethyl)-1,3,4-oxadiazol-2-yl]acetyl}pyrrolidine-2-carboxamide]
23 | > 100000 | 191 | O=C(N[C@@H](c1ccccc1)c1ccc(C2CC2)c(F)c1)[C@@H]1C[C@@H](F)CN1C(=O)Cc1nnn[nH]1 [Compound 430, (2S,4R)-N-[(S)-(4-cyclopropyl-3-fluorophenyl)(phenyl)methyl]-4-fluoro-1-[2-(1H-1,2,3,4-tetrazol-5-yl)acetyl]pyrrolidine-2-carboxamide]
24 | > 100000 | 185 | Cc1nnnn1CC(=O)N1C[C@H](F)C[C@H]1C(=O)N[C@@H](c1ccccc1)c1ccc(C2CC2)c(F)c1 [Compound 432, (2S,4R)-N-[(S)-(4-cyclopropyl-3-fluorophenyl)(phenyl)methyl]-4-fluoro-1-[2-(5-methyl-1H-1,2,3,4-tetrazol-1-yl)acetyl]pyrrolidine-2-carboxamide]
25 | > 100000 | 109 | Cc1nnc(CC(=O)N2C[C@H](F)C[C@H]2C(=O)N[C@@H](c2ccccc2)c2ccc(C3CC3)c(F)c2)[nH]1 [Compound 434, (2S,4R)-N-[(S)-(4-cyclopropyl-3-fluorophenyl)(phenyl)methyl]-4-fluoro-1-[2-(5-methyl-4H-1,2,4-triazol-3-yl)acetyl]pyrrolidine-2-carboxamide]
